What was measured:
FPtk1 = target: T1, FPtk1 (Porphyromonas gingivalis, UniProt B2RKZ8); settings: 5 mM ATP, 1 h; Php1 as phosphoacceptor
T1 construct: gene PGN_1524

Php1 [1] = target: T2, Php1 (Porphyromonas gingivalis, UniProt B2RKZ9); set-up: gene PGN_1525; settings: 50 mM pNPP, pH 8.0, 37 °C, 1 mM MnCl2; also inhibits with phosphotyrosine as substrate
Ltp1 = target: T3, Ltp1 (Porphyromonas gingivalis, UniProt B2RI15); assay: phosphatase inhibition, pNPP hydrolysis; type: biochemical; settings: pNPP as substrate; DMSO vehicle
T3 construct: gene PGN_0491

Php1 [2] = target: T2, Php1; assay: p-nitrophenol release ([…] nm); type: biochemical; set-up: gene PGN_1525; php1 coding region, GST-tagged (pGEX-4T-1) or His-tagged (pLATE51), E. coli BL21(DE3) Star; 247 residues, 28 kDa; settings: 50 mM pNPP, pH 8.0, 37 °C, 1 mM MnCl2
Php1 [3] = target: T2, Php1; set-up: gene PGN_1525; settings: 200 μM phosphotyrosine, pH 8.0, 37 °C, 1 mM MnCl2

T2 sequence (B2RKZ9 entry or part of it): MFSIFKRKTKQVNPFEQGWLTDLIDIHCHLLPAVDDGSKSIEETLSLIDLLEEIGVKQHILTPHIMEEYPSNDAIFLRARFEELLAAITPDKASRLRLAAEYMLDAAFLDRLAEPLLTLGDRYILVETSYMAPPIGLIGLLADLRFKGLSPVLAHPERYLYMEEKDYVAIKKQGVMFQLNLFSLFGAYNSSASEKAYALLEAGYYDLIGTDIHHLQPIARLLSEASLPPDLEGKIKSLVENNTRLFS
T3 sequence (B2RI15 entry or part of it): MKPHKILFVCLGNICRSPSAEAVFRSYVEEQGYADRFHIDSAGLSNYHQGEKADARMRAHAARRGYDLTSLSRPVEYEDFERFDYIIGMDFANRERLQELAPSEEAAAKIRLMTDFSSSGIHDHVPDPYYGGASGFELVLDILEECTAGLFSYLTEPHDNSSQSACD
T1 sequence (B2RKZ8 entry or part of it): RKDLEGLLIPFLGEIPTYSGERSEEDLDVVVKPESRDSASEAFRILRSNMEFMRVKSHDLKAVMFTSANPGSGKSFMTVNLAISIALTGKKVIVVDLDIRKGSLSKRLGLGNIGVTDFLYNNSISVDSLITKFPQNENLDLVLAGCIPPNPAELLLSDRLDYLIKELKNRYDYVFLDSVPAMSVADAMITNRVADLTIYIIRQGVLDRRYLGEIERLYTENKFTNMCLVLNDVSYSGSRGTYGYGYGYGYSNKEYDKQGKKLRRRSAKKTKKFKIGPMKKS

Nc1ncnc2c1ncn2[C@@H]1O[C@H](COP(=O)(O)OP(=O)(O)OP(=O)(O)O)[C@@H](O)[C@H]1O [ATP]
anti-phosphotyrosine immunoblot of Php1 phosphorylation (FPtk1): Tyrosine phosphorylation of Php1 increased after incubation with FPtk1 in the presence of ATP

[O]=[V]([OH])([OH])[OH] [Na3VO4, sodium orthovanadate]
inhibition (Php1 [1]): (pNPP) was inhibited by the tyrosine phosphatase inhibitor Na3VO4

Nc1ccc(C(=O)O)cc1 [pABA, para-amino benzoic acid]
% activity relative to no inhibitor (Ltp1): Both H2O2 and pABA inhibited Ltp1 but not Php1

O=[N+]([O-])c1ccc(OP(=O)(O)O)cc1 [pNPP, p-nitrophenyl phosphate]
p-nitrophenol release (405 nm) (Php1 [2]): Php1 phosphatase activity on p-nitrophenyl phosphate (pNPP)

N[C@@H](Cc1ccc(OP(=O)(O)O)cc1)C(=O)O [phosphotyrosine]
malachite green phosphate release (Php1 [3]): Php1 was most active against phosphotyrosine
